The source made the active and inactive calls. The calls are words filed in the database; no cut-off is given here. A value given as a limit tells only on which side of the number the result lay.

Assay [1] deals with K562. As to the kind of experiment: Ratio of tiazofurin IC50 to compound IC50 for human K562 cells. It is filed as functional.
In assay [2] the test system is HeLa. The experiment in a line: Cytotoxicity against human HeLa cells after 72 hrs by MTT assay. It counts as functional, cell-based. For orientation: Tetrazolium assays rely on reduction of a dye to a coloured formazan, in cell work by metabolically active cells.
In assay [3] the test system is MRC5. The experiment in a line: Cytotoxicity against human MRC5 cells after 72 hrs by MTT assay. The note with it: MRC5, 72 h. It counts as cell-based.
The test system of assay [4] is Jurkat. The experiment in a line: Cytotoxicity against human Jurkat cells after 72 hrs by MTT assay. It is filed as functional, cell-based.
Assay [5] has as its system Raji. The experiment in a line: Cytotoxicity against human Raji cells after 72 hrs by MTT assay. It is filed as functional, cell-based.
The subject of assay [6] is K562. As to the kind of experiment: Cytotoxicity against human K562 cells after 72 hrs by MTT assay. It counts as functional, cell-based. As to conditions: K562, 72 h.
Assay [7] has as its system HL-60. As to the kind of experiment: Cytotoxicity against human HL60 cells after 72 hrs by MTT assay. It counts as functional, cell-based. As to conditions: HL-60, 72 h.
Assay [8] relates to HT-29. The experiment in a line: Cytotoxicity against human HT-29 cells. It counts as functional, cell-based.
Assay [9] relates to MCF7. The experiment in a line: Cytotoxicity against human MCF7 cells. It counts as functional, cell-based.
Assay [10] deals with MDA-MB-231. The experiment in a line: Cytotoxicity against human MDA-MB-231 cells. It is filed as functional, cell-based.
Assay [11] deals with K562. The experiment in a line: Induction of apoptosis in human K562 cells assessed as apoptotic cells at IC50 concentration after 72 hrs by AnnexinV staining-based flow cytometric analysis relative to tiazofurin. It counts as functional. On the technique in general: Flow cytometry measures light scatter and fluorescence of single cells or particles in a stream.
In assay [12] the test system is K562. As to the kind of experiment: Induction of apoptosis in human K562 cells at IC50 concentration after 24 hrs by AnnexinV staining-based flow cytometric analysis. It counts as functional, cell-based.
Assay [13] has as its system K562. As to the kind of experiment: Cytotoxicity against human K562 cells after 72 hrs by SRB assay. It is filed as functional, cell-based. As to conditions: K562, 72 h. Background: The SRB assay estimates cell density from bound dye.
For assay [14], the system named is K562. As to the kind of experiment: Cytotoxicity against human K562 cells after 72 hrs by DET assay. It is filed as functional, cell-based. The note with it: K562, 72 h.
Assay [15] concerns HeLa. As to the kind of experiment: Ratio of tiazofurin IC50 to compound IC50 for human HeLa cells. It counts as functional.
Assay [16] relates to HL-60. The experiment in a line: Ratio of tiazofurin IC50 to compound IC50 for human HL60 cells. It counts as functional.

With `C[C@]1(c2nc(C(N)=O)cs2)O[C@H]2O[C@H](CO)[C@H](O)[C@H]2O1`, in assay [1], the “Ratio IC50” value is given as 100. Also, the half-maximal inhibitory concentration (IC50) (commonly the point on the concentration scale where inhibition reaches its midpoint) in assay [2] was 640 nM; in [3] it was above 100000 nM; in assay [4], 640 nM; in [5], 5610 nM; in assay [6], 20 nM; in [7] it was 340 nM.

As for `NC(=O)c1csc([C@@H]2O[C@H](CO)[C@@H](O)[C@H]2O)n1` [TIAZOFURIN], the IC50 in assay [8] was 260 nM; in assay [9] it was 260 nM; in assay [10], 260 nM; in [2], 3820 nM; in [3], 360 nM; in assay [4], 40 nM. The IC50 in [5] was 5280 nM; in assay [6], 2090 nM; in assay [7] it was 190 nM.

Take `NC(=O)c1csc([C@@H]2O[C@H](CO)[C@H](O)[C@H]2O)n1`: in [11], the “fold change (FC)” value is recorded as 7. In addition, the outcome in [12] was Active. In addition, the outcome in [8], in [9] and in assay [10] was inactive. For the same compound, the IC50 in [13] is 416 nM; in [14], 100 nM; in assay [2], 80 nM; in assay [3], above 100000 nM; in assay [4], 530 nM; in [5], 3110 nM. Moreover, the values for the IC50 in [6] and in assay [7] were 150 nM and 130 nM, respectively. In addition, the “Ratio IC50” value in assay [15] stood at 48.

`C[C@@]1(c2nc(C(N)=O)cs2)O[C@H]2O[C@H](CO)[C@H](O)[C@H]2O1`: the “Ratio IC50” value in assay [16] came to 4; in assay [15] it was 64. In addition, the IC50 in [2] is 60 nM; in assay [3], above 100000 nM; in assay [4], 590 nM; in [5] it was 2640 nM; in assay [6], 100 nM; in assay [7], 50 nM.
